Measurements taken from US10047076B2, “Halogen-substituted compounds” (BAYER CROPSCIENCE AKTIENGESELLSCHAFT, priority 2014, dated 2018).
Values belong to the compound of their own block, whether it stands above or below them.

How the values were obtained:
[1] = log P determination by HPLC on reversed-phase column (C18), EEC Directive 79/831 Annex V.A8, acidic (formic acid); type: physicochemical; settings: HPLC method a), acetonitrile/water with formic acid
Method: ^1 The stated mass is the peak of the isotope pattern of the [M+H]^+ ion of the highest intensity; if the [M-H]^- ion was detected, the stated mass is identified with ^2. ^2 The stated mass is the peak of the isotope pattern of the [M-H]^- ion of the highest intensity. ^a) Note regarding the determination of the log P values and mass detection: The determination of the given log P values was carried out in accordance with EEC Directive 79/831 Annex V.A8 by HPLC (High Performance Liquid Chromatography) on a reversed-phase column (C18). […] Mass detection is effected by means of an […] system. ^b) Note regarding the determination of the retention time and mass detection: The stated retention times were determined on a reversed-phase column (C18) Shimadzu LCMS 2020; 50*3.0 Shimadzu shim-pack XR-ODS 2.2 micron; mobile phase A: water (0.05% TFA); mobile phase B: acetonitrile; linear gradient from 5% acetonitrile to 95% acetonitrile in 6.00 min, then 95% acetonitrile for a further 1.1 min; oven temperature 40° C.; flow rate: 1.0 ml/min. ^c) Note regarding the determination of the retention time and mass detection: Instrument: Waters ACQUITY SQD UPLC system; column. Waters Acquity UPLC HSS T3 1.8μ 50×1 mm; mobile phase A: 1 l of water+0.25 ml of 99% strength formic acid, mobile phase B: 1 l of acetonitrile+0.25 ml of 99% strength formic acid; gradient: 0.0 min 90% A→1.2 min 5% A→2.0 min 5% A oven: 50° C.; flow rate: 0.40 ml/min; UV detection: 208-400 nm. ^d) Note regarding the determination of the retention time and mass detection: […] The determination of the given log P values was carried out in accordance with EEC Directive 79/831 Annex V.A8 by HPLC (High Performance Liquid Chromatography) on a reversed-phase column (C18). […] Mass detection is effected by means of an […] system.

Phaedon cochleariae = Phaedon cochleariae spray test; settings: larvae on Chinese cabbage leaf discs, after 7 days
Spodoptera frugiperda = Spodoptera frugiperda spray test; type: in vivo; settings: 500 g/ha, caterpillars on maize leaf discs, after 7 days
Text: Solvent: 78.0 parts by weight of acetone

chromatographic logP [1]: 4.24
SMILES: Cn1nc(-c2cccc(C(=O)NCc3ccccc3)c2)nc1-c1c(C(F)(F)F)c(C(F)(F)C(F)(F)F)nn1C [Ibg-15, N-benzyl-3-{1-methyl-5-[1-methyl-3-(pentafluoroethyl)-4-(trifluoromethyl)-1H-pyrazol-5-yl]-1H-1,2,4-triazol-3-yl}benzamide]

SMILES: CCn1nc(-c2c(C(F)(F)F)c(C(F)(F)C(F)(F)F)nn2C)nc1-c1ccc(Cl)c(C(=O)Nc2ccccc2)c1 [Ibh-13]
logP [1]: 4.73

SMILES: CCn1nc(-c2c(C(F)(F)F)c(C(F)(F)C(F)(F)F)nn2C)nc1-c1ccc(Cl)c(C(=O)NCC(F)(F)F)c1 [Ibh-5]
logP [1]: 4.32
efficacy (Phaedon cochleariae; 500 g/ha): 100%

SMILES: CC(C)n1nc(-c2c(C(F)(F)F)c(C(F)(F)C(F)(F)F)nn2C)nc1-c1ccc(Cl)c(C(=O)NCC(F)(F)F)c1 [Ibh-7]
logP [1]: 4.68

SMILES: Cn1nc(C(F)(F)C(F)(F)F)c(C(F)(F)F)c1-c1nc(-c2ccc(Cl)c(C(=O)Nc3ccc(F)cc3)c2)ns1 [Ibd-2]
logP [1]: 5.17

SMILES: Cn1nc(-c2ccc(Cl)c(C(=O)Nc3ccccc3)c2)nc1-c1c(C(F)(F)F)c(C(F)(F)C(F)(F)F)nn1C [Ibg-14]
logP [1]: 4.56

SMILES: Cn1nc(C(F)(F)C(F)(F)F)c(C(F)(F)F)c1-c1nnc(-c2cccc(C(=O)NC3CC3)c2)s1 [Iaj-1, N-cyclopropyl-3-{5-[1-methyl-3-(pentafluoroethyl)-4-(trifluoromethyl)-1H-pyrazol-5-yl]-1,3,4-thiadiazol-2-yl}benzamide]
chromatographic logP [1]: 3.72
efficacy (Phaedon cochleariae; 500 g/ha): 100%

SMILES: CC(C)n1nc(-c2ccc(Cl)c(C(=O)NC3CC3)c2)nc1-c1c(C(F)(F)F)c(C(F)(F)C(F)(F)F)nn1C [Ibg-13]
logP [1]: 4.35
efficacy (Phaedon cochleariae; 500 g/ha): 100%

SMILES: Cn1nc(C(F)(F)C(F)(F)F)c(C(F)(F)F)c1-c1nnc(-c2ccc(Cl)c(C(=O)NC3CC3)c2)[nH]1 [Ibi-3]
logP [1]: 3.40

chromatographic logP [1]: 3.94
SMILES: CN(C(=O)c1cccc(-c2cc(-c3c(C(F)(F)F)c(C(F)(F)C(F)(F)F)nn3C)n(C)n2)c1)C1CC1 [Iaw-1, N-cyclopropyl-3-[2,2′-dimethyl-5′-(pentafluoroethyl)-4′-(trifluoromethyl)-2H,2′H-3,3′-bipyrazol-5-yl]-N-methylbenzamide]

SMILES: CCn1nc(-c2ccc(Cl)c(C(=O)Nc3ccccc3)c2)nc1-c1c(C(F)(F)F)c(C(F)(F)C(F)(F)F)nn1C [Ibg-12]
logP [1]: 4.85

SMILES: Cn1nc(C(F)(F)C(F)(F)F)c(C(F)(F)F)c1-c1nnc(-c2ccc(Cl)c(C(=O)Nc3ccccc3)c2)[nH]1 [Ibi-4]
logP [1]: 4.13

SMILES: Cn1nc(C(F)(F)C(F)(F)F)c(C(F)(F)F)c1-c1nnc(-c2ccc(Cl)c(C(=O)NCC(F)(F)F)c2)[nH]1 [Ibi-2]
logP [1]: 3.73

SMILES: CC(C)n1nc(-c2ccc(Cl)c(C(=O)Nc3ccccc3)c2)nc1-c1c(C(F)(F)F)c(C(F)(F)C(F)(F)F)nn1C [Ibg-11]
logP [1]: 5.13

SMILES: CC(C)n1nc(-c2ccc(Cl)c(C(=O)NCc3ccccc3)c2)nc1-c1c(C(F)(F)F)c(C(F)(F)C(F)(F)F)nn1C [Ibg-8]
logP [1]: 4.93
efficacy (Phaedon cochleariae; 500 g/ha): 100%

chromatographic logP [1]: 4.16
SMILES: Cn1nc(C(F)(F)C(F)(F)F)c(C(F)(F)F)c1-c1noc(-c2ccc(Cl)c(C(=O)NC3CC3)c2)n1 [Ibe-1, 2-chloro-N-cyclopropyl-5-{3-[1-methyl-3-(pentafluoroethyl)-4-(trifluoromethyl)-1H-pyrazol-5-yl]-1,2,4-oxadiazol-5-yl}benzamide]
efficacy (Spodoptera frugiperda): 100%
efficacy (Phaedon cochleariae; 500 g/ha): 100%

SMILES: Cn1nc(-c2c(C(F)(F)F)c(C(F)(F)C(F)(F)F)nn2C)nc1-c1ccc(Cl)c(C(=O)NC2CC2)c1 [Ibh-8]
logP [1]: 3.67
efficacy (Spodoptera frugiperda): 83%
efficacy (Phaedon cochleariae; 500 g/ha): 100%

SMILES: Cn1nc(C(F)(F)C(F)(F)F)c(C(F)(F)F)c1-c1noc(-c2ccc(Cl)c(C(=O)Nc3ccc(F)cc3)c2)n1 [Ibe-3]
logP [1]: 4.91
efficacy (Phaedon cochleariae; 500 g/ha): 100%

SMILES: CCn1nc(-c2c(C(F)(F)F)c(C(F)(F)C(F)(F)F)nn2C)nc1-c1ccc(Cl)c(C(=O)NCc2ccccc2)c1 [Ibh-10]
logP [1]: 4.59

chromatographic logP [1]: 3.8
SMILES: Cn1nc(C(F)(F)C(F)(F)F)c(C(F)(F)F)c1-c1nc(-c2cccc(C(=O)NCc3ccccc3)c2)n[nH]1 [Ibg-1, N-benzyl-3-{5-[1-methyl-3-(pentafluoroethyl)-4-(trifluoromethyl)-1H-pyrazol-5-yl]-1H-1,2,4-triazol-3-yl}benzamide]

SMILES: Cn1nc(-c2ccc(Cl)c(C(=O)NCc3ccccc3)c2)nc1-c1c(C(F)(F)F)c(C(F)(F)C(F)(F)F)nn1C [Ibg-10]
logP [1]: 4.43

SMILES: CC(C)n1nc(-c2c(C(F)(F)F)c(C(F)(F)C(F)(F)F)nn2C)nc1-c1ccc(Cl)c(C(=O)Nc2ccccc2)c1 [Ibh-12]
logP [1]: 5.23

SMILES: Cn1nc(C(F)(F)C(F)(F)F)c(C(F)(F)F)c1-c1ncc(-c2cccc(C(N)=O)c2)s1 [Iaq-2]
logP [1]: 3.38

SMILES: Cn1nc(C(F)(F)C(F)(F)F)c(C(F)(F)F)c1-c1nc(-c2ccc(Cl)c(C(=O)NC3CC3)c2)ns1 [Ibd-3, 2-chloro-N-cyclopropyl-5-{5-[1-methyl-3-(pentafluoroethyl)-4-(trifluoromethyl)-1H-pyrazol-5-yl]-1,2,4-thiadiazol-3-yl}benzamide]
efficacy (Phaedon cochleariae; 500 g/ha): 100%

SMILES: Cn1nc(-c2c(C(F)(F)F)c(C(F)(F)C(F)(F)F)nn2C)nc1-c1ccc(Cl)c(C(=O)NCc2ccccc2)c1 [Ibh-11]
logP [1]: 4.29

SMILES: Cn1nc(C(F)(F)C(F)(F)F)c(C(F)(F)F)c1-c1nc(-c2cccc(C(=O)NCC(F)(F)F)c2)n[nH]1 [Ibg-3]
logP [1]: 3.54

SMILES: Cn1nc(C(F)(F)C(F)(F)F)c(C(F)(F)F)c1-c1noc(-c2ccc(Cl)c(C(=O)NCc3ccccc3)c2)n1 [Ibe-2]
logP [1]: 4.76

SMILES: Cn1nc(C(F)(F)C(F)(F)F)c(C(F)(F)F)c1-c1nc(-c2ccc(Cl)c(C(=O)NCc3ccccc3)c2)ns1 [Ibd-1]
logP [1]: 5.00

SMILES: Cn1nc(C(F)(F)C(F)(F)F)c(C(F)(F)F)c1-c1nnc(-c2ccc(Cl)c(C(=O)NCc3ccccc3)c2)[nH]1 [Ibi-1]
logP [1]: 4.00

chromatographic logP [1]: 4.13
SMILES: CN(C(=O)c1cccc(-c2cc(-c3c(C(F)(F)F)c(C(F)(F)C(F)(F)F)nn3C)nn2C)c1)C1CC1 [Iax-1, N-cyclopropyl-3-[1,2′-dimethyl-5′-(pentafluoroethyl)-4′-(trifluoromethyl)-1H,2′H-3,3′-bipyrazol-5-yl]-N-methylbenzamide]
efficacy (Phaedon cochleariae; 100 g/ha): 100%

chromatographic logP [1]: 3.93
SMILES: Cn1nc(C(F)(F)C(F)(F)F)c(C(F)(F)F)c1-c1ncc(-c2cccc(C(=O)NC3(C#N)CC3)c2)s1 [Iaq-1, N-(1-cyanocyclopropyl)-3-{2-[1-methyl-3-(pentafluoroethyl)-4-(trifluoromethyl)-1H-pyrazol-5-yl]-1,3-thiazol-5-yl}benzamide]
efficacy (Phaedon cochleariae; 100 g/ha): 100%

chromatographic logP [1]: 4.16
SMILES: Cn1nc(-c2c(C(F)(F)F)c(C(F)(F)C(F)(F)F)nn2C)nc1-c1cccc(C(=O)NCc2ccccc2)c1 [Ibh-2, N-benzyl-3-{1-methyl-3-[1-methyl-3-(pentafluoroethyl)-4-(trifluoromethyl)-1H-pyrazol-5-yl]-1H-1,2,4-triazol-5-yl}benzamide]

SMILES: Cn1nc(C(F)(F)C(F)(F)F)c(C(F)(F)F)c1-c1nc(-c2cccc(C(=O)NC3CC3)c2)n[nH]1 [Ibg-2]
logP [1]: 3.24

SMILES: CC(C)n1nc(-c2c(C(F)(F)F)c(C(F)(F)C(F)(F)F)nn2C)nc1-c1ccc(Cl)c(C(=O)NC2CC2)c1 [Ibh-6]
logP [1]: 4.39
efficacy (Phaedon cochleariae; 500 g/ha): 100%

SMILES: CCn1nc(-c2ccc(Cl)c(C(=O)NCc3ccccc3)c2)nc1-c1c(C(F)(F)F)c(C(F)(F)C(F)(F)F)nn1C [Ibg-9]
logP [1]: 4.71
efficacy (Phaedon cochleariae; 500 g/ha): 100%

SMILES: CCn1nc(-c2ccc(Cl)c(C(=O)NCC(F)(F)F)c2)nc1-c1c(C(F)(F)F)c(C(F)(F)C(F)(F)F)nn1C [Ibg-6]
logP [1]: 4.41

SMILES: Cn1nc(-c2ccc(Cl)c(C(=O)NC3CC3)c2)nc1-c1c(C(F)(F)F)c(C(F)(F)C(F)(F)F)nn1C [Ibg-7]
logP [1]: 3.80
efficacy (Phaedon cochleariae; 500 g/ha): 100%

SMILES: Cn1nc(-c2ccc(Cl)c(C(=O)NCC(F)(F)F)c2)nc1-c1c(C(F)(F)F)c(C(F)(F)C(F)(F)F)nn1C [Ibg-4]
logP [1]: 4.14

SMILES: Cn1nc(C(F)(F)C(F)(F)F)c(C(F)(F)F)c1-c1cc(-c2ccc(Cl)c(C(=O)NCC(=O)NCC(F)(F)F)c2)no1 [Iap-6]
logP [1]: 3.87
efficacy (Phaedon cochleariae; 100 g/ha): 100%

SMILES: Cn1nc(-c2c(C(F)(F)F)c(C(F)(F)C(F)(F)F)nn2C)nc1-c1ccc(Cl)c(C(=O)Nc2ccccc2)c1 [Ibh-14]
logP [1]: 4.42

SMILES: CC(C)n1nc(-c2c(C(F)(F)F)c(C(F)(F)C(F)(F)F)nn2C)nc1-c1ccc(Cl)c(C(=O)NCc2ccccc2)c1 [Ibh-9]
logP [1]: 4.98
